What all share (type): biochemical
Test [1] deals with T1, TACE (Homo sapiens, UniProt P78536).
T1 construct: made in house; host or cells: mammalian cells or insect cells
The test is described as follows: TACE inhibition experiment (in vitro).

The target in test [2] is T2, Human MMP1 (Homo sapiens, UniProt P03956).
T2 construct: purchased Calbiochem 444208
T2 sequence (P03956 100-469): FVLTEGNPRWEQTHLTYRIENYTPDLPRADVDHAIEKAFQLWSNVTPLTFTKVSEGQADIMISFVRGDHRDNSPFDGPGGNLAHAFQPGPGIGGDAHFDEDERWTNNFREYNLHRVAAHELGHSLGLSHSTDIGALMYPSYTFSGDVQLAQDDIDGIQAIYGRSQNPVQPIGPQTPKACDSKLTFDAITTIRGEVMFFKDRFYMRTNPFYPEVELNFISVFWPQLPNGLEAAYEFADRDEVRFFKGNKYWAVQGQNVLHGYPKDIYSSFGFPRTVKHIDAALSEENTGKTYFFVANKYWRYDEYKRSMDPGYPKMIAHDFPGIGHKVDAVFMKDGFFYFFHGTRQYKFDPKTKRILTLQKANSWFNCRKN
The test is described as follows: MMP1 inhibition experiment. The settings on record: read-out: IC50 value MMP-1.
Experimental: (§1) The methods of inhibition experiments carried out for various MMPs are described below.
This enzyme solution in amount of 10 μL was diluted to 90 μL with the assay buffer A, which was added to 90 μL of 20 μM fluorescent substrate (Dnp-Pro-Cha(β-cyclohexylalanyl)-Gly-Cys(Me)-His-Ala-Lys(Nma)-NH2) prepared in the assay buffer B, followed by reaction for 5 hours at 37° C.

Test [3] deals with T3, Human MMP2 (Homo sapiens, UniProt P08253).
T3 construct: purchased Calbiochem 444213
T3 sequence (P08253 110-660): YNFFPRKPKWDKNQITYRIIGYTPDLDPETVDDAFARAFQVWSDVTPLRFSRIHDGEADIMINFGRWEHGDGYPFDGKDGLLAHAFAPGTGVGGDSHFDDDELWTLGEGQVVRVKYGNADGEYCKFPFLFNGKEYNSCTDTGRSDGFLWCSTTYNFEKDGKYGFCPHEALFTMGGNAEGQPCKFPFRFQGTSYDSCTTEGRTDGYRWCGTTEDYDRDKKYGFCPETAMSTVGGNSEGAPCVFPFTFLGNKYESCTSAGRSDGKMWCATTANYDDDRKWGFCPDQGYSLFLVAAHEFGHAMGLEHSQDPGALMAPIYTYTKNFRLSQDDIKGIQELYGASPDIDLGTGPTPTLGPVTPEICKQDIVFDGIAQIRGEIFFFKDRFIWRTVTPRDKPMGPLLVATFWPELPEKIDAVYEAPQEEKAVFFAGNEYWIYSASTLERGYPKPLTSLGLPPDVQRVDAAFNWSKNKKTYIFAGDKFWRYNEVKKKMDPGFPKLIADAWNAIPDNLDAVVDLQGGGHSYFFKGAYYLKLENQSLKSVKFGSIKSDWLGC
Nature of the test: MMP2 inhibition experiment. To be noted: concentration required for 50% inhibition of enzyme activity; read-out: IC50 value MMP-2.
Experimental: This enzyme solution in amount of 10 μL was diluted to 90 μL with the assay buffer A, which was added to 90 μL of 20 μM fluorescent substrate (MOCAc((7-methoxycoumarin-4-yl)acetyl)-Pro-Leu-Gly-Leu-A2pr(Dnp)-Ala-Arg-NH2, Peptide Institute, Inc., #3163-v) prepared in the assay buffer B, followed by reaction for 5 hours at 37° C.

In test [4] the target is T4, Human MMP3 (Homo sapiens, UniProt P08254).
T4 construct: purchased Calbiochem 444217
T4 sequence (P08254 100-272 limits assumed): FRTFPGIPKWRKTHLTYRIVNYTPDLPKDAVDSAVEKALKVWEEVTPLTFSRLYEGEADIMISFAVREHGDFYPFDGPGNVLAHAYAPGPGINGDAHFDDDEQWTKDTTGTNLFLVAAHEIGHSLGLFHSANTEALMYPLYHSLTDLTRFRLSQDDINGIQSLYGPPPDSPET
Nature of the test: MMP3 inhibition experiment. The settings on record: concentration required for 50% inhibition of enzyme activity; read-out: IC50 value MMP-3. The essentials: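 Fluorescence-quenched substrate NFF-3 (MOCAc/Dnp peptide, 20 μM as prepared) cleaved by 5 ng human MMP3 over 5 hours at 37° C, with inhibition measured from substrate fluorescence.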

In test [5] the target is T5, Human MMP8 (Homo sapiens, UniProt P22894).
T5 construct: purchased Calbiochem 444229
T5 sequence (P22894 101-467): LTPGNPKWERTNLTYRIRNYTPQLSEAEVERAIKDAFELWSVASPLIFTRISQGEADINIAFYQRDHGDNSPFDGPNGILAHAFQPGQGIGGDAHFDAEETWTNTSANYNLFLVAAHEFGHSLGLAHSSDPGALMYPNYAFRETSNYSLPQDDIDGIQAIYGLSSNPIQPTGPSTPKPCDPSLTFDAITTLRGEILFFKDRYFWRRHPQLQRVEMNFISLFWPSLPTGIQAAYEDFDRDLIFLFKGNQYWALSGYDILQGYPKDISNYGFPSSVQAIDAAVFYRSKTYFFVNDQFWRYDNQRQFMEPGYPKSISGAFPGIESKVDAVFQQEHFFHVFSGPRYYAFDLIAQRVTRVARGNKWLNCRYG
The test is described as follows: MMP8 inhibition experiment. The settings on record: concentration required for 50% inhibition of enzyme activity; read-out: IC50 value MMP-8. The essentials:
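Human MMP8 activated with APMA for 1 h at 37° C, then incubated with fluorogenic peptide MOCAc-Pro-Leu-Gly-Leu-A2pr(Dnp)-Ala-Arg-NH2 (20 μM stock) for 5 hours at 37° C. Fluorescent substrate cleavage serves as read-out.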

Test [6] deals with T6, Human MMP9 (Homo sapiens, UniProt P14780).
T6 construct: purchased Calbiochem 444231
T6 sequence (P14780 107-707 limits assumed): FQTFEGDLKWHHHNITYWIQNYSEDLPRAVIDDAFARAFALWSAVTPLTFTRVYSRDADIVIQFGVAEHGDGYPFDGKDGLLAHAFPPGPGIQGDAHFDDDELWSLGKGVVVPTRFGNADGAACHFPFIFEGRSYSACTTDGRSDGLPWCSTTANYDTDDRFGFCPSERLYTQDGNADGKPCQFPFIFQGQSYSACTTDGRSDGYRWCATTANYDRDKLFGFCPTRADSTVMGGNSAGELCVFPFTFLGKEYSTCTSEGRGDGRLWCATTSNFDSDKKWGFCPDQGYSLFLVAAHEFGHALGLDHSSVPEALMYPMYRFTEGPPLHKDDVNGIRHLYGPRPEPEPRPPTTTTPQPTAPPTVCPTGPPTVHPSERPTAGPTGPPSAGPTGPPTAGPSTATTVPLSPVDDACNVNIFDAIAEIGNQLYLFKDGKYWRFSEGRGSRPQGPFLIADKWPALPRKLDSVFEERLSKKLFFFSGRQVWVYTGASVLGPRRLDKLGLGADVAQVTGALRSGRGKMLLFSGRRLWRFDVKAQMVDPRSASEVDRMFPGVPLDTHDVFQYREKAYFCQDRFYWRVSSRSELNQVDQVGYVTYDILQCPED
The test is described as follows: MMP9 inhibition experiment. The settings on record: read-out: IC50 value MMP-9.
Experimental: as §1
This enzyme solution in amount of 1 μL was diluted to 90 μL with the assay buffer A, which was added to 90 μL of 20 μM fluorescent substrate (Dnp-Pro-Cha-Gly-Cys(Me)-His-Ala-Lys(Nma)-NH2) prepared in the assay buffer B, followed by reaction for 4 hours at 37° C.

In test [7] the target is T7, Human MMP13 (Homo sapiens, UniProt P45452).
T7 construct: purchased Chemicon CC068
The test is described as follows: MMP13 inhibition experiment. To be noted: concentration required for 50% inhibition of enzyme activity; read-out: IC50 value MMP-13.
Experimental: Human MMP13 (Chemicon #CC068) in amount of 90 μL (200 ng) was activated by mixing with 10 μL of 10 mM APMA, followed by reaction for 1 hour at 37° C. This enzyme solution in amount of 0.6 μL was diluted to 90 μL with the assay buffer A, which was added to 90 μL of 20 μM fluorescent substrate (Dnp-Pro-Cha-Gly-Cys(Me)-His-Ala-Lys(Nma)-NH2) prepared in the assay buffer B, followed by reaction for 4 hours at 37° C.

The target of test [8] is T8, Human MMP14 (Homo sapiens, UniProt P50281).
T8 construct: purchased Biogenesis or Calbiochem 5980-1461 or 475935
The test is described as follows: MMP14 inhibition experiment. The settings on record: concentration required for 50% inhibition of enzyme activity; read-out: IC50 value MMP-14. In short, it runs like this:
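Fluorescence assay: substrate Dnp-Pro-Cha-Gly-Cys(Me)-His-Ala-Lys(Nma)-NH2 (20 μM before equal-volume mixing) incubated at 37° C for 5 hours with 4 ng human MMP14.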

The target of test [9] is T9, Human MMP17 (Homo sapiens, UniProt Q9ULZ9).
T9 construct: purchased Calbiochem 475940
T9 sequence (Q9ULZ9 126-300 limits assumed): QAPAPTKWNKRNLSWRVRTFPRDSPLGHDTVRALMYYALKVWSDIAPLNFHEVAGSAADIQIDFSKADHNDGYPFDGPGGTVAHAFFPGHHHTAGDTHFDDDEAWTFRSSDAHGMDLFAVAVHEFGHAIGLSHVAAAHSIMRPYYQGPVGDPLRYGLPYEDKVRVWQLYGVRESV
The test is described as follows: MMP17 inhibition test. The settings on record: concentration required for 50% inhibition of enzyme activity; read-out: IC50 value MMP-17.

Among the data in US7511144B2, “Reverse hydroxamic acid derivatives” (Kaken Pharmaceutical Co., Ltd., priority 2001, dated 2009) are IC50 values, retold here.

T1 sequence (P78536 215-824): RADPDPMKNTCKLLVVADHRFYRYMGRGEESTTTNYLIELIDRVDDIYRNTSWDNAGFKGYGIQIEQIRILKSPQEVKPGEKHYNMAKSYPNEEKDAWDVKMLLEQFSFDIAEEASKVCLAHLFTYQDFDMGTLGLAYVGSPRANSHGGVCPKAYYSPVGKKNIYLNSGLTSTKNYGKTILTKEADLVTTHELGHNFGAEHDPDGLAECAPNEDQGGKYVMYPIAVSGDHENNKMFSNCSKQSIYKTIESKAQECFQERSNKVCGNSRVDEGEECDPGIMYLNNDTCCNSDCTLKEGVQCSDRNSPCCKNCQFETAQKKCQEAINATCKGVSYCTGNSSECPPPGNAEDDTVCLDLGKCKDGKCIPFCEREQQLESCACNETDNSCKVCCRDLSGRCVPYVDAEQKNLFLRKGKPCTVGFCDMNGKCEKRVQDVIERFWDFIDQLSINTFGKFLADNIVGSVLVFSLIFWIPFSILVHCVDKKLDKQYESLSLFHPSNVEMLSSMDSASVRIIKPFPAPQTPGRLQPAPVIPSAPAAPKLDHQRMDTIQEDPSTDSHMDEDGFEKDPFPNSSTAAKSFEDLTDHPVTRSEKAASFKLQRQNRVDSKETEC

The IC50 is the concentration at which inhibition is half-maximal. Take `Cc1cc(COc2ccc(S(=O)(=O)CC(CCC3=CCCC(OC=O)C3)N(O)C=O)cc2)c2ccccc2n1` (stereo not drawn) [Example I-38]: the IC50 in test [1] was found to be 0.012 µM; in test [2], 57 µM; in [3] it was 12 µM; in [4], 2 µM; in test [5], 46 µM; in test [6] it was 54 µM. Also, the IC50 was found to be 22 µM in test [7], 50 µM in test [8] and 2.2 µM in test [9].
`Cc1cc(COc2ccc(S(=O)(=O)CC(C3CSC(=O)N3C)N(O)C=O)cc2)c2ccccc2n1` (stereo not drawn) [Example I-58]: the IC50 in [1] is 0.0031 µM; in test [2] it was more than 100 µM; in test [3], 21 µM; in test [4], 1.9 µM; in test [5], 11 µM; in [6], more than 100 µM. Moreover, the half-maximal inhibitory concentration (IC50) was 27 µM in test [7], more than 100 µM in [8] and 0.58 µM in test [9].
On to `Cc1cc(COc2ccc(S(=O)(=O)CC(C3CCN(C(=O)OC(C)(C)C)CC3)N(O)C=O)cc2)c2ccccc2n1` (stereo not drawn) [Example I-68], for which the IC50 in test [1] worked out at 0.023 µM; in [2], 80 µM; in test [3], 1.5 µM; in [4], 0.5 µM; in test [5], 8 µM; in test [6] it was 50 µM. In addition, the IC50 in [7] came to 0.53 µM; in test [8], 40 µM; in test [9], 0.22 µM.
In the case of `Cc1ccc2nc(C)cc(COc3ccc(S(=O)(=O)CC(c4ccccc4C)N(O)C=O)cc3)c2c1` (stereo not drawn) [Example I-77], the IC50 in test [1] was 0.026 µM; in test [2] it was 74 µM; in test [3], 71 µM; in test [4], 3 µM; in [5] it was more than 100 µM; in [6], 80 µM. For the same molecule, the results for the IC50 in [7], in [8] and in test [9] were 28 µM, 55 µM and 7.5 µM, respectively.
For `Cc1cc(COc2ccc(S(=O)(=O)CC(CCc3cccnc3)N(O)C=O)cc2)c2ccccc2n1` (stereo not drawn) [Example I-56], the IC50 in test [1] amounted to 0.004 µM; in test [2] it was 70 µM; in test [3], 3.1 µM; in test [4] it was 1 µM; in [5] it was 7.2 µM; in test [6], 55 µM. The IC50 stood at 6.4 µM in test [7], 42 µM in test [8] and 1.2 µM in test [9].
In the case of `Cc1ccc(C(C)(CS(=O)(=O)c2ccc(OCc3cc(C)nc4ccccc34)cc2)N(O)C=O)cc1` (stereo not drawn) [Example I-57], the IC50 in [1] was 0.012 µM; in test [2], 42 µM; in test [3] it was more than 100 µM; in test [4], 6 µM; in test [5] it was more than 100 µM; in [6] it was 60 µM. Also, the IC50 in [7] was found to be 33 µM; in test [8], 33 µM; in [9], 4.6 µM.
On to `O=CN(O)C(C=C1CCC2(CC1)OCCO2)CS(=O)(=O)c1ccc(OCc2ccc3ccccc3n2)cc1` (stereo not drawn) [Example I-83], for which the IC50 in test [1] was 2.5 µM; in [2], more than 100 µM; in [3], 7 µM; in [4], 37 µM; in [5] it was more than 100 µM; in [6] it was 53 µM. Further, the values for the IC50 in [7], in test [8] and in [9] were 23 µM, 55 µM and 36 µM, respectively.
Consider `Cc1cc(COc2ccc(S(=O)(=O)CC(CC3CCN(S(C)(=O)=O)CC3)N(O)C=O)cc2)c2ccccc2n1` (stereo not drawn) [Example I-70], for which the IC50 is 0.011 µM in [1]; more than 100 µM in test [2]; 11 µM in [3]; 1.3 µM in test [4]; 22 µM in [5]; more than 100 µM in [6]. The IC50 in test [7] was determined as 30 µM; in test [8], 92 µM; in test [9], 1.9 µM.
For the molecule `COc1ccc(CN2C(=O)SCC2C(CS(=O)(=O)c2ccc(OCc3cc(C)nc4ccccc34)cc2)N(O)C=O)cc1` (stereo not drawn) [Example I-59], the IC50 is 0.01 µM in test [1]; 54 µM in [2]; 80 µM in test [3]; 5.6 µM in test [4]; 58 µM in [5]; more than 100 µM in [6]. Further, the IC50 in test [7] was determined as 35 µM; in [8], 60 µM; in [9] it was 2.6 µM.
Consider `Cc1cc(COc2ccc(S(=O)(=O)CC(CC3CCN(C(=O)c4ccccc4)CC3)N(O)C=O)cc2)c2ccccc2n1` (stereo not drawn) [Example I-50], for which the IC50 was 0.013 µM in test [1]; 60 µM in test [2]; 1.4 µM in test [3]; 0.2 µM in [4]; 5.8 µM in test [5]; 31 µM in test [6]. Besides, the IC50 was found to be 3 µM in [7], 30 µM in test [8] and 0.2 µM in test [9].
Consider `Cc1cc(COc2ccc(S(=O)(=O)CC(CN3CCN(S(C)(=O)=O)CC3)N(O)C=O)cc2)c2ccccc2n1` (stereo not drawn) [Example I-52], for which the IC50 in test [1] was 0.012 µM; in [2] it was more than 100 µM; in [3], 22 µM; in test [4], 1 µM; in test [5], 42 µM; in test [6] it was more than 100 µM. Further, the values for the IC50 in test [7], in test [8] and in test [9] were 40 µM, more than 100 µM and 1.6 µM, respectively.
With `CCC(CC)C(=O)N1CCCC(C(CS(=O)(=O)c2ccc(OCc3cc(C)nc4ccccc34)cc2)N(O)C=O)C1` (stereo not drawn) [Example I-130], the IC50 in test [1] is 0.014 µM; in test [2] it was 50 µM; in [3], 2.6 µM; in test [4], 0.24 µM; in [5], 7 µM; in [6] it was 46 µM. In addition, the IC50 in test [7] came to 2.7 µM; in test [8] it was 19 µM; in test [9] it was 0.11 µM.
On to `COCc1cc(COc2ccc(S(=O)(=O)CC(C=C3CCC(=NO)CC3)N(O)C=O)cc2)cc(C)n1` (stereo not drawn) [Example I-120], for which the IC50 in test [1] is 0.11 µM; in [2], more than 100 µM; in test [3], 22 µM; in test [4], 68 µM; in test [5], 27 µM; in test [6], more than 100 µM. For the same molecule, the IC50 in test [7] is 62 µM; in [8], more than 100 µM; in test [9], 33 µM.
As for `Cc1cc(COc2ccc(S(=O)(=O)CC(N(O)C=O)C3(C)CCC(O)CC3)cc2)c2ccccc2n1` (stereo not drawn) [Example I-137], the IC50 in test [1] is 0.024 µM; in test [2], more than 100 µM; in test [3], more than 100 µM; in test [4], 3.2 µM; in test [5] it was 23 µM; in [6], more than 100 µM. The IC50 in [7] is 50 µM; in test [8] it was more than 100 µM; in [9], 0.9 µM.
